As a reminder, the IC50 is the concentration that gives 50% inhibition. The term inhibition denotes the relative decrease from the control value, in per cent.

The record followed here is patent publication US11555009B2, “2-(substituted benzene matrix) aromatic formate FTO inhibitor, preparation method therefor, and applications thereof” (SHANGHAI INSTITUTE OF MATERIA MEDICA, CHINESE ACADEMY OF …, priority 2017, dated 2023).

The target in one data set is FTO (Homo sapiens (Human), UniProt Q9C0B1). Description: FTO enzyme inhibition (m6A dsDNA substrate, DpnII digestion, gel readout). Type of data set: biochemical. The conditions noted are these: for Inhibition rate: in vitro inhibition rate on FTO, compound at 50 μM; for inhibition at 50 µM: read-out: Inhibition rate. The method, then: High purity FTO protein was obtained by nickel column affinity chromatography purification.
Sequence of FTO (Q9C0B1 whole entry): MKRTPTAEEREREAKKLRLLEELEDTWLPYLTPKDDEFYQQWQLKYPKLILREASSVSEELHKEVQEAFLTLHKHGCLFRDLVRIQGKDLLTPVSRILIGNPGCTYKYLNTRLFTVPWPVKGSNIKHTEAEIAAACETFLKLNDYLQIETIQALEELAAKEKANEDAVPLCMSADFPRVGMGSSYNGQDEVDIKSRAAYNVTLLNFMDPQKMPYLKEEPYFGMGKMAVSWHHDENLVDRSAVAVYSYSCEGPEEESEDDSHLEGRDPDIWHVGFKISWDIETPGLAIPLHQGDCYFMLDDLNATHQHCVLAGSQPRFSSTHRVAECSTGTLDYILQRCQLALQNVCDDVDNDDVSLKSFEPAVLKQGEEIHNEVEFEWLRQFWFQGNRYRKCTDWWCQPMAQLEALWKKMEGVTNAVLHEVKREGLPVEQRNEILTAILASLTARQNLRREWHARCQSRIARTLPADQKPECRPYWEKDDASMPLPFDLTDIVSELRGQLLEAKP
After incubation at room temperature for 2 hrs, the reaction system was then slowly heated to 65° C. to inactivate, and 1 μM 39 nt of antisense strand DNA was added to anneal, thereby forming double strands. […] After Gel-Red dyeing, photos were taken with gel imaging system. The obtained band was subjected to gray scale reading to obtain inhibition rate.

In data set [1] the test system is human bone marrow rhabdomyosarcoma cell line (RH30). The data set can be described thus: MTS cytotoxicity on RH30 cells. Format: cell-based. Particulars: for Inhibition rate (human bone marrow rhabdomyosarcoma cell RH30) / inhibition at 50 µM: 50 μM, 72 h; for inhibition at 50 µM: read-out: Inhibition rate (human bone marrow rhabdomyosarcoma cell RH30). How it is done: (§1) The following was a study of the cytotoxicity study of compound of 2-(substituted phenylhetero)aromatic formic acid of formula (I) and its derivatives as FTO inhibitors on solid tumors including human small cell lung cancer cell lines (SCLC-21H), human bone marrow rhabdomyosarcoma cell line (RH30) and pancreatic cancer cell Line (KP3):
(§2) SCLC-21H, RH30 and KP3 solid tumor cell lines were cultivated separately, and seeded at 5000 cells per well in 96 well plates. The cells were cultured until the cells were adherent, and different compounds were added and the cultivation was continued for 72 hours. 10 uL of MTS solution was directly added and the mixture was incubated for 4 h, and the absorbance was measured at 490 nm. The inhibition rate was calculated by using the DMSO group as a control.

The test system of data set [2] is human small cell lung cancer cell lines (SCLC-21H). The data set can be described thus: MTS cytotoxicity on SCLC-21H cells. Type of data set: cell-based. Particulars: for Inhibition rate (human small cell lung cancer SCLC-21H) / inhibition at 50 µM: 50 μM, 72 h; for IC50: read-out: Cytotoxicity on cell line SCLC (IC50); for inhibition at 50 µM: read-out: Inhibition rate (human small cell lung cancer SCLC-21H). The method, then: as §1, §2

Data set [3] deals with pancreatic cancer cell Line (KP3). Description: MTS cytotoxicity on KP3 cells. Type of data set: cell-based. How it is done: as §1, §2

Like-named read-outs stand apart in the source and are kept apart here.

`CCN(CC)CCNC(=O)c1ccccc1Nc1c(Cl)cc(-c2cn[nH]c2)cc1Cl` [Compound 81] yielded an Inhibition rate at FTO of 67%. Besides, the IC50 is 1.3 µM in data set [1], 9.2 µM in data set [2] and below 1 µM in data set [3]. Moreover, in data set [1], the “Inhibition rate (human bone marrow rhabdomyosarcoma cell RH30)” value is 80%. Besides, in data set [2], the “Inhibition rate (human small cell lung cancer SCLC-21H)” value came to 83%.
In the case of `CCN(CC)CCNC(=O)c1ccccc1Nc1c(Cl)cc(-c2c(C)noc2C)cc1Cl` [Compound 79], in data set [1], it took 2.6 µM to reach half-maximal inhibition (IC50) and the “Inhibition rate (human bone marrow rhabdomyosarcoma cell RH30)” value was found to be 79%. In addition, in data set [2], the “Inhibition rate (human small cell lung cancer SCLC-21H)” value was 80% and the IC50 was below 1 µM. This molecule returned an IC50 in data set [3] of 2.6 µM.
As to `CCN(CC)CCNC(=O)c1cccnc1Nc1c(Cl)cc(-c2c(C)noc2C)cc1Cl` [Compound 78], the results for the IC50 in data set [1], in data set [2] and in data set [3] were 14.7 µM, 5.1 µM and 8.7 µM, respectively.
Regarding `Cc1noc(C)c1-c1cc(Cl)c(Nc2ccccc2C(=O)NO)c(Cl)c1` [Compound 25], the IC50 against FTO is below 1 µM; in data set [1] (Homo sapiens, Rh30), 2.9 µM; in data set [2] (Homo sapiens, SCLC-21H), 2.4 µM; in data set [3] (Pancreatic cancer cell) it was 2.9 µM. In addition, the inhibition at 50 µM at FTO stood at 46%; in data set [1] (Homo sapiens, Rh30), 75%; in data set [2] (Homo sapiens, SCLC-21H), 78%.
On FTO, `O=C(NO)c1ccccc1Nc1c(Cl)cc(-c2cn[nH]c2)cc1Cl` [Compound 33] gave an IC50 below 1 µM and an Inhibition rate of 63%. In addition, in data set [1], it took 4.1 µM to reach half-maximal inhibition (IC50) and the “Inhibition rate (human bone marrow rhabdomyosarcoma cell RH30)” value is 86%. Moreover, in data set [2], the “Inhibition rate (human small cell lung cancer SCLC-21H)” value is 83% and the IC50 was 7.1 µM. In data set [3], this molecule displayed an IC50 of 2.2 µM.
Regarding `Cc1noc(C)c1-c1cc(Cl)c(Nc2ccccc2C(=O)NCCCN2CCOCC2)c(Cl)c1` [Compound 82], on FTO, the Inhibition rate came out at 29%. The IC50 in data set [1] is 1.6 µM; in data set [2] it was 9.9 µM; in data set [3], below 1 µM.
In the case of `Cc1noc(C)c1-c1cc(F)c(Nc2ccccc2C(=O)NO)c(F)c1` [Compound 39], the IC50 at FTO is below 1 µM; in data set [1] it was 3.2 µM; in data set [2], 7.3 µM; in data set [3], 2.6 µM. Besides, the Inhibition rate on FTO worked out at 90%.
With `Cc1n[nH]cc1-c1cc(Cl)c(Nc2ccccc2C(=O)NO)c(Cl)c1` [Compound 31], at FTO, the IC50 was below 5 µM and the Inhibition rate was determined as 70%. Besides, in data set [1], the midpoint of inhibition, the IC50, lay at 3.6 µM and the “Inhibition rate (human bone marrow rhabdomyosarcoma cell RH30)” value was 70%. In addition, in data set [2], the “Inhibition rate (human small cell lung cancer SCLC-21H)” value was 75% and the IC50 was 7.2 µM. Further, in data set [3], the IC50 was 6.2 µM.
Take `CCN(CC)CCNC(=O)c1ccccc1Nc1c(Cl)cc(-c2cc(F)cc(F)c2)cc1Cl` [Compound 83]: the IC50 in data set [1] and in data set [3] was 4.7 µM each time.
For the molecule `Cc1noc(C)c1-c1cc(Cl)c(Nc2ccccc2C(=O)NCCN2CCN(C)CC2)c(Cl)c1` [Compound 80], the Inhibition rate on FTO stood at 29%. Further, in data set [1], 2 µM corresponded to half-maximal inhibition (IC50) and the “Inhibition rate (human bone marrow rhabdomyosarcoma cell RH30)” value is reported as 82%. In addition, in data set [2], the “Inhibition rate (human small cell lung cancer SCLC-21H)” value turned out to be 86% and the IC50 is below 1 µM. The molecule further registered an IC50 in data set [3] of 2 µM.
In turn, `O=C(O)c1ccccc1Nc1cc(F)c(-c2ccncc2)c(F)c1` [Compound 49] returned an Inhibition rate at FTO of 100%. Moreover, in data set [1], the “Inhibition rate (human bone marrow rhabdomyosarcoma cell RH30)” value is 51%. Besides, in data set [2], the “Inhibition rate (human small cell lung cancer SCLC-21H)” value was 20%.
On to `O=C(O)c1cc(F)ccc1Nc1c(Cl)cc(-c2ccncc2)cc1Cl` [Compound 70], for which the Inhibition rate on FTO amounted to 81%. For the same molecule, the “Inhibition rate (human bone marrow rhabdomyosarcoma cell RH30)” value in data set [1] is on record as 42%. Also, the “Inhibition rate (human small cell lung cancer SCLC-21H)” value in data set [2] stood at 46%.
In the case of `Cc1noc(C)c1-c1cc(Cl)c(Nc2ccccc2C(=O)OCOC(=O)C(C)(C)C)c(Cl)c1` [Compound 87], the inhibition at 50 µM on FTO is 31%; in data set [1] (Homo sapiens, Rh30), 28%; in data set [2] (Homo sapiens, SCLC-21H), 26%.
Consider `Cc1n[nH]c(C)c1-c1cc(Cl)c(Nc2ccccc2C(=O)NO)c(Cl)c1` [Compound 32], for which, in data set [1], the IC50 is 5.3 µM and the “Inhibition rate (human bone marrow rhabdomyosarcoma cell RH30)” value came out at 63%. In data set [2], the “Inhibition rate (human small cell lung cancer SCLC-21H)” value is 70% and the IC50 was determined as 2.1 µM. Also, the IC50 in data set [3] was 5.6 µM.
Regarding `Cc1noc(C)c1-c1cc(F)c(Nc2ccccc2C(=O)O)c(F)c1` [Compound 38], the IC50 at FTO is below 1 µM; in data set [1], 9.2 µM; in data set [2], 4.2 µM; in data set [3] it was below 1 µM. The Inhibition rate at FTO was determined as 100%.
